Our source for the Ki and IC50 values is US10988477B2 (Merck Patent GmbH, priority 2018, dated 2021).

The target in one experiment is GCN2 kinase (Homo sapiens, UniProt Q9P2K8). The experiment can be described thus: GCN2 enzyme inhibition assay (Transcreener ADP2 fluorescence polarization). In kind it is biochemical. To be noted: Enzyme activity for compounds of Formula IV; Ki(app), 280 μM ATP, 25° C. The essentials: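 Human GCN2 (4 nM) preincubated 10 min with compound (0–8 μM) and 200 μM (RS)7 peptide in Tris-HCl pH 7.5, NaCl, MgCl2, DTT. Reaction started with 280 μM ATP, run 1 h at 25 °C. ADP detected by Transcreener fluorescence polarization. IC50 and Ki(app) fitted by tight-binding algorithm.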
(In fluorescence polarisation assays a small probe gives low polarisation when free and higher when bound to something large.)

Experiment [1] concerns the target intracellular GCN2 (phosphorylation of the GCN2 substrate eIF2α) (Homo sapiens, UniProt Q9P2K8). The experiment can be described thus: GCN2 cellular inhibition assay (AlphaScreen SureFire P-eIF2α Ser51, borrelidin-treated U2OS cells). In kind it is cell-based. As to conditions: compounds of Formula IV; biomarker assay, phosphorylated eIF2α Ser51 in borrelidin-treated U2OS cells. Summed up:
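Read-out: AlphaScreen SureFire phospho-eIF2α (Ser51) signal in U2OS lysates. Cells get 4-fold compound dilutions (top 40 μM final) plus 10 μM borrelidin, 1 h, 37 °C. Percent inhibition is relative to borrelidin-alone controls.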
(Alpha assays give light when donor and acceptor beads are brought close together.)

Sequence of intracellular GCN2 (phosphorylation of the GCN2 substrate eIF2α) (Q9P2K8 whole entry): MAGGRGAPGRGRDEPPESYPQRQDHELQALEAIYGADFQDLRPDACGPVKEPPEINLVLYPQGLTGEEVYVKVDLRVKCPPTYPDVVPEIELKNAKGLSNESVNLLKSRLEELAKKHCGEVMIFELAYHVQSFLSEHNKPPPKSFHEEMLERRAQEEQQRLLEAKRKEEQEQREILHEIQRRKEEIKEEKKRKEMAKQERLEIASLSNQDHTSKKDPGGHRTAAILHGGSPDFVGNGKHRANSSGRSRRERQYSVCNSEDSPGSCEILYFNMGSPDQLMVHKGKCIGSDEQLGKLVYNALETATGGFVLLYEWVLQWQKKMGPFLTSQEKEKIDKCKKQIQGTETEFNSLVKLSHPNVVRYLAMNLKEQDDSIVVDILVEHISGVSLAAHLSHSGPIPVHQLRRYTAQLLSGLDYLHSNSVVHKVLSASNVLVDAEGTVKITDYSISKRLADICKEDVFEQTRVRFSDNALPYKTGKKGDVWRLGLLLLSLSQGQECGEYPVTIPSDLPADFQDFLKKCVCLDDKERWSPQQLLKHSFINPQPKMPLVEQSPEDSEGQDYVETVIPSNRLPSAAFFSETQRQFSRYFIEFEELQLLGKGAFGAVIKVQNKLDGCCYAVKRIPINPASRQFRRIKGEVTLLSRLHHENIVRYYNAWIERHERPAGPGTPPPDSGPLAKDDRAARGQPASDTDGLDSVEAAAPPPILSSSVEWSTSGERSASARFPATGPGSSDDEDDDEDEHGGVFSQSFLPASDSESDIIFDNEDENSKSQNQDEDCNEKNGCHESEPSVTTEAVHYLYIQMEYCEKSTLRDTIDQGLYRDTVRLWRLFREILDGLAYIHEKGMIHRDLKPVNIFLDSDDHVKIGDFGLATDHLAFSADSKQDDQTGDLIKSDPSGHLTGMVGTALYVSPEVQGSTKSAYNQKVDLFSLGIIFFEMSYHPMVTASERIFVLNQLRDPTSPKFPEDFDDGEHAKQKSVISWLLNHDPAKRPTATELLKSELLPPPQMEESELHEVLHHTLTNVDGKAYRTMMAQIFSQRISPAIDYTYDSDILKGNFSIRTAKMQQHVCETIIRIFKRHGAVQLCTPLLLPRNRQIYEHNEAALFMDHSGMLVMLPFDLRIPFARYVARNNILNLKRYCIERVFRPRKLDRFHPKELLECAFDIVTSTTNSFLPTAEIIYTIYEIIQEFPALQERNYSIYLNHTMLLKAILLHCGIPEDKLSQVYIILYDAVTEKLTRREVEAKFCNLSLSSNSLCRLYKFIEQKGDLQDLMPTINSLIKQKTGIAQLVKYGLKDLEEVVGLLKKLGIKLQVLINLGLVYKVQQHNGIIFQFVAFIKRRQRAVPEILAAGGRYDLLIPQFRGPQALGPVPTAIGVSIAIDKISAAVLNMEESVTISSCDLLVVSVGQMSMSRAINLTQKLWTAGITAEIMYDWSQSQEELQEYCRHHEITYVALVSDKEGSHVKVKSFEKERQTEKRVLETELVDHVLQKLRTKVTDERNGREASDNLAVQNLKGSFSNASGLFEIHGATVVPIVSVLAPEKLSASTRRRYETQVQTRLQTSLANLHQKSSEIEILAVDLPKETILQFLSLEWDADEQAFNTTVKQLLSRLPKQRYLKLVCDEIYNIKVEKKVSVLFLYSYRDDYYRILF
Sequence of GCN2 kinase (Q9P2K8 whole entry): as above

As usually defined, the IC50 is the midpoint of a concentration-inhibition curve. A high value points to weaker potency. `CS(=O)(=O)NC[C@@H]1CN(c2ccnc(-c3cnc4cnc(C(F)F)cn34)n2)CCO1` [IV-23, (S)—N-((4-(2-(6-(Difluoromethyl)imidazo[1,2-a]pyrazin-3-yl)pyrimidin-4-yl)morpholin-2-yl)methyl)methanesulfonamide] registered a Ki at GCN2 kinase of 0.1 to 1 µM. The same compound registered an IC50 in experiment [1] of over 5 µM.
`CC(=O)N1CCN(c2ccnc(-c3cnc4cnc(C(F)(F)F)cn34)n2)CC1` [IV-24, 1-(4-(2-(6-(Trifluoromethyl)imidazo[1,2-a]pyrazin-3-yl)pyrimidin-4-yl)piperazin-1-yl)ethan-1-one] came in with a Ki on GCN2 kinase of 0.1 to 1 µM. Further, in experiment [1], the IC50 is over 5 µM.
For `COc1cn2c(-c3nccc(N4CCN(C(C)=O)CC4)n3)cnc2cn1` [IV-25, 1-(4-(2-(6-Methoxyimidazo[1,2-a]pyrazin-3-yl)pyrimidin-4-yl)piperazin-1-yl)ethan-1-one], in that order: 0.1 to 1 µM and over 5 µM.
As to `CC(=O)N1CCN(c2ccnc(-c3cnc4cnc(CO)cn34)n2)CC1` [IV-26, 1-(4-(2-(6-(Hydroxymethyl)imidazo[1,2-a]pyrazin-3-yl)pyrimidin-4-yl)piperazin-1-yl)ethan-1-one], the Ki at GCN2 kinase was 0.1 to 1 µM. The IC50 in experiment [1] is over 5 µM.
As to `CS(=O)(=O)NCC1CCN(c2ccnc(-c3cnc4cnc(Br)cn34)n2)C1` (centres unmarked) [IV-27, N-((1-(2-(6-Bromoimidazo[1,2-a]pyrazin-3-yl)pyrimidin-4-yl)pyrrolidin-3-yl)methyl)methanesulfonamide], the Ki on GCN2 kinase fell in the range of 0.01 to 0.1 µM. The compound further gave an IC50 in experiment [1] of 0.5 to 5 µM.
Compound `FC(F)c1cn2c(-c3nccc(N4CCOC(c5cn[nH]c5)C4)n3)cnc2cn1` (centres unmarked) [IV-28, 4-(2-(6-(Difluoromethyl)imidazo[1,2-a]pyrazin-3-yl)pyrimidin-4-yl)-2-(1H-pyrazol-4-yl)morpholine] returned a Ki at GCN2 kinase of 0.01 to 0.1 µM. In experiment [1], this compound came in with an IC50 of 0.5 to 5 µM.
As for `CS(=O)(=O)NC[C@H]1CCCN(c2ccnc(-c3cnc4cnc(C(F)F)cn34)n2)C1` [IV-29, (S)—N-((1-(2-(6-(Difluoromethyl)imidazo[1,2-a]pyrazin-3-yl)pyrimidin-4-yl)piperidin-3-yl)methyl)methanesulfonamide], on GCN2 kinase, the Ki was 0.1 to 1 µM. Moreover, in experiment [1], the IC50 is over 5 µM.
With `CC(=O)N1CCN(c2ccnc(-c3cnc4cnc(C(=O)O)cn34)n2)CC1` [IV-30, 3-(4-(4-Acetylpiperazin-1-yl)pyrimidin-2-yl)imidazo[1,2-a]pyrazine-6-carboxylic acid], the Ki at GCN2 kinase is 0.1 to 1 µM. This compound also displayed an IC50 in experiment [1] of over 5 µM.
The compound `CC(=O)N1CCN(c2ccnc(-c3cnc4cnc(Br)cn34)n2)CC1` [IV-32, 1-(4-(2-(6-Bromoimidazo[1,2-a]pyrazin-3-yl)pyrimidin-4-yl)piperazin-1-yl)ethan-1-one] showed a Ki on GCN2 kinase of 0.1 to 1 µM. Also, the IC50 in experiment [1] was in the range of 0.5 to 5 µM.
In the same order, the values of `CC(=O)N1CCN(c2ccnc(-c3cnc4cnc(C5CC5)cn34)n2)CC1` [IV-33, 1-(4-(2-(6-Cyclopropylimidazo[1,2-a]pyrazin-3-yl)pyrimidin-4-yl)piperazin-1-yl)ethan-1-one] are 0.1 to 1 µM and over 5 µM.
For the compound `CS(=N)(=O)CC1CCCN(c2ccnc(-c3cnc4cnc(C(F)(F)F)cn34)n2)C1` (centres unmarked) [IV-34, Imino(methyl)((1-(2-(6-(trifluoromethyl)imidazo[1,2-a]pyrazin-3-yl)pyrimidin-4-yl)piperidin-3-yl)methyl)-λ^6-sulfanone], the Ki at GCN2 kinase was in the range of 0.1 to 1 µM. The IC50 in experiment [1] was over 5 µM.
As for `CC(=O)N1CCN(c2ccnc(-c3cnc4cnc(Cl)cn34)n2)CC1` [IV-35, 1-(4-(2-(6-Chloroimidazo[1,2-a]pyrazin-3-yl)pyrimidin-4-yl)piperazin-1-yl)ethan-1-one], at GCN2 kinase, the Ki was 0.1 to 1 µM. The same compound returned an IC50 in experiment [1] of over 5 µM.
In the same order, the values of `CC(=O)N1CCN(c2ccnc(-c3cnc4cnc(C(N)=O)cn34)n2)CC1` [IV-36, 3-(4-(4-Acetylpiperazin-1-yl)pyrimidin-2-yl)imidazo[1,2-a]pyrazine-6-carboxamide] are 0.1 to 1 µM and over 5 µM.
As to `C=Cc1cn2c(-c3nccc(N4CCN(C(C)=O)CC4)n3)cnc2cn1` [IV-37, 1-(4-(2-(6-Vinylimidazo[1,2-a]pyrazin-3-yl)pyrimidin-4-yl)piperazin-1-yl)ethan-1-one], at GCN2 kinase, the Ki was in the range of 0.1 to 1 µM. Further, the IC50 in experiment [1] was over 5 µM.
In the same order, the values of `NC(=O)c1cn2c(-c3nccc(N4CCOC(c5cn[nH]c5)C4)n3)cnc2cn1` (centres unmarked) [IV-38, 3-(4-(2-(1H-Pyrazol-4-yl)morpholino)pyrimidin-2-yl)imidazo[1,2-a]pyrazine-6-carboxamide] are 0.01 to 0.1 µM and over 5 µM.
Regarding `c1cn2c(-c3nccc(N4CCOC(c5cn[nH]c5)C4)n3)cnc2cn1` (centres unmarked) [IV-39, 4-(2-(Imidazo[1,2-a]pyrazin-3-yl)pyrimidin-4-yl)-2-(1H-pyrazol-4-yl)morpholine], on GCN2 kinase, the Ki lay within 0.1 to 1 µM. Also, the IC50 in experiment [1] was over 5 µM.
Compound `FC(F)(F)c1cn2c(-c3ccnc(N4CCOC(c5cn[nH]c5)C4)n3)cnc2cn1` (centres unmarked) [IV-40, 2-(1H-Pyrazol-4-yl)-4-(4-(6-(trifluoromethyl)imidazo[1,2-a]pyrazin-3-yl)pyrimidin-2-yl)morpholine] yielded a Ki at GCN2 kinase of 0.01 to 0.1 µM. The compound also gave an IC50 in experiment [1] of under 0.5 µM.
In the same order, the values of `NC(=O)NCC1CCCN(c2ccnc(-c3cnc4cnc(C(F)F)cn34)n2)C1` (centres unmarked) [IV-41, 1-((1-(2-(6-(Difluoromethyl)imidazo[1,2-a]pyrazin-3-yl)pyrimidin-4-yl)piperidin-3-yl)methyl)urea] are 0.1 to 1 µM and over 5 µM.
In the same order, the values of `NC(=O)C1CCCN(c2ccnc(-c3cnc4cnc(C(F)F)cn34)n2)C1` (centres unmarked) [IV-42, 1-(2-(6-(Difluoromethyl)imidazo[1,2-a]pyrazin-3-yl)pyrimidin-4-yl)piperidine-3-carboxamide] are 0.01 to 0.1 µM and 0.5 to 5 µM.
Take `CS(=O)(=O)NCCC1CCCN(c2ccnc(-c3cnc4cnc(C(F)F)cn34)n2)C1` (centres unmarked) [IV-43, N-(2-(1-(2-(6-(Difluoromethyl)imidazo[1,2-a]pyrazin-3-yl)pyrimidin-4-yl)piperidin-3-yl)ethyl)methanesulfonamide]: the Ki at GCN2 kinase lay in the range of 0.1 to 1 µM. Moreover, the IC50 in experiment [1] is over 5 µM.
Turning to `CNC(=O)C1CCCN(c2ccnc(-c3cnc4cnc(C(F)F)cn34)n2)C1` (centres unmarked) [IV-44, 1-(2-(6-(Difluoromethyl)imidazo[1,2-a]pyrazin-3-yl)pyrimidin-4-yl)-N-methylpiperidine-3-carboxamide], on GCN2 kinase, the Ki was 0.1 to 1 µM. This compound also registered an IC50 in experiment [1] of over 5 µM.
In the same order, the values of `NC(=O)CCC1CCCN(c2ccnc(-c3cnc4cnc(C(F)F)cn34)n2)C1` (centres unmarked) [IV-45, 3-(1-(2-(6-(Difluoromethyl)imidazo[1,2-a]pyrazin-3-yl)pyrimidin-4-yl)piperidin-3-yl)propanamide] are 0.1 to 1 µM and over 5 µM.
At GCN2 kinase, `CC1CN(c2nccc(-c3cnc4cnc(C(F)F)cn34)n2)CC(CNS(C)(=O)=O)C1(F)F` (centres unmarked) [IV-46, N-((1-(4-(6-(Difluoromethyl)imidazo[1,2-a]pyrazin-3-yl)pyrimidin-2-yl)-4,4-difluoro-5-methylpiperidin-3-yl)methyl)methanesulfonamide] displayed a Ki of 0.1 to 1 µM. In experiment [1], this compound yielded an IC50 of over 5 µM.
Consider `NC(=O)C1CN(c2ccnc(-c3cnc4cnc(C(F)F)cn34)n2)CCO1` (centres unmarked) [IV-48, 4-(2-(6-(Difluoromethyl)imidazo[1,2-a]pyrazin-3-yl)pyrimidin-4-yl)morpholine-2-carboxamide], for which the Ki at GCN2 kinase fell in the range of 0.1 to 1 µM. The same compound had an IC50 in experiment [1] of over 5 µM.
On GCN2 kinase, `O=C1CCN(c2ccnc(-c3cnc4cnc(C(F)F)cn34)n2)CCN1` [IV-49, 1-(2-(6-(Difluoromethyl)imidazo[1,2-a]pyrazin-3-yl)pyrimidin-4-yl)-1,4-diazepan-5-one] showed a Ki of 0.1 to 1 µM. This compound returned an IC50 in experiment [1] of over 5 µM.
`NC(=O)[C@H]1CCCN(c2ccnc(-c3cnc4cnc(C(F)F)cn34)n2)C1` [IV-50, (S)-1-(2-(6-(Difluoromethyl)imidazo[1,2-a]pyrazin-3-yl)pyrimidin-4-yl)piperidine-3-carboxamide] displayed a Ki at GCN2 kinase of 0.01 to 0.1 µM. The compound further returned an IC50 in experiment [1] of 0.5 to 5 µM.
`FC(F)c1cn2c(-c3nccc(N4CCCC(c5nn[nH]n5)C4)n3)cnc2cn1` (centres unmarked) [IV-51, 3-(4-(3-(2H-Tetrazol-5-yl)piperidin-1-yl)pyrimidin-2-yl)-6-(difluoromethyl)imidazo[1,2-a]pyrazine] returned a Ki at GCN2 kinase of 0.1 to 1 µM. Besides, the IC50 in experiment [1] is over 5 µM.
In the same order, the values of `FC(F)c1cn2c(-c3nccc(N4CCCC(c5cccnc5)C4)n3)cnc2cn1` (centres unmarked) [IV-52, 6-(Difluoromethyl)-3-(4-(3-(pyridin-3-yl)piperidin-1-yl)pyrimidin-2-yl)imidazo[1,2-a]pyrazine] are 0.1 to 1 µM and over 5 µM.
In the same order, the values of `FC(F)c1cn2c(-c3nccc(N4CCCC(c5c[nH]cn5)C4)n3)cnc2cn1` (centres unmarked) [IV-53, 3-(4-(3-(1H-Imidazol-4-yl)piperidin-1-yl)pyrimidin-2-yl)-6-(difluoromethyl)imidazo[1,2-a]pyrazine] are 0.01 to 0.1 µM and 0.5 to 5 µM.
At GCN2 kinase, `CC1C(C(N)=O)CCCN1c1ccnc(-c2cnc3cnc(C(F)F)cn23)n1` (centres unmarked) [IV-54, 1-(2-(6-(Difluoromethyl)imidazo[1,2-a]pyrazin-3-yl)pyrimidin-4-yl)-2-methylpiperidine-3-carboxamide] came in with a Ki of 0.01 to 0.1 µM. The IC50 in experiment [1] was 0.5 to 5 µM.
In the case of `NC(=O)C1CCCN(c2cccc(-c3cnc4cnc(C(F)F)cn34)n2)C1` (centres unmarked) [IV-55, 1-(6-(6-(Difluoromethyl)imidazo[1,2-a]pyrazin-3-yl)pyridin-2-yl)piperidine-3-carboxamide], the Ki on GCN2 kinase was 0.01 to 0.1 µM. For the same compound, in experiment [1], the IC50 fell in the range of 0.5 to 5 µM.
